The test system of test [1] is human cardiac fibroblasts. In words: Cell-based inhibition assay of generation of procollagen I C-terminal propeptide (PICP), PICP ELISA. The following applies: Cardiac fibroblast, read-out: pIC50, PICP cellular inhibition assay (converted). An outline of the steps: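 Cardiac fibroblasts (passage ≤6) treated 24–48 h at 37 °C with compounds in ficoll crowding medium containing 100 μM ascorbic acid, DMSO <0.3%. PICP secreted into the medium was quantified by ELISA, normalised to untreated controls and fitted to log(inhibitor)–response to give pIC50.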

Test [2] concerns human cardiac fibroblasts. Description: Cell-based inhibition assay of mature collagen deposition (immunostaining). The following applies: Cardiac fibroblast, read-out: pIC50, mature collagen cellular inhibition assay (converted). On the procedure: Cell-Based Inhibition Assay of Generation of Procollagen I C-Terminal Propeptide (PICP) and Mature Collagen:
An adaptation of the collagen deposition assay described by Chen, C. Z. C., et al., British Journal of Pharmacology, 2009, 158, 1196-1209 was used to examine effect of compounds on procollagen I processing and collagen deposition. In the adapted assay, human cardiac fibroblasts were utilized. Processing of procollagen I was determined by a PICP ELISA assay and deposition of mature collagen was determined by immunostaining.
Human cardiac fibroblasts were cultured and maintained until passage 6 in FGM-3 media (Lonza, #CC-3132) in a 37° C. humidified incubator with 5% CO2. They were then seeded in 96-well black wall, clear bottom plates at 10,000 to 15,000 cells per well in eagle's minimum essential media (EMEM, ATCC #30-2003) containing 10% fetal bovine serum (FBS, Life Technologies #10082147), 1% Glutamax (Life Technologies #35050061) and 1% Penicillin and Streptomycin (Life Technologies #15070063). These cultures were placed in 37° C. incubator. The next day, media were removed by aspiration and cells were rinsed with phosphate buffered saline. Crowding media (also called ficoll media) was prepared by adding 112.5 mg/ml of ficoll70 and 75 mg/ml ficoll400 (GE healthcare #17-0310-10 and 17-0300-10, respectively), 100 μM ascorbic acid, 1% Glutamax and 1% Penicillin and Streptomycin to EMEM media. Test compounds (dissolved in DMSO) were diluted into crowding media and then added to the cells. Final concentration of DMSO in crowding media was less than 0.3%. Cells were treated for 24 to 48 hr in a 37° C. incubator. At the end of the treatment period, cell media were collected. The level of PICP in the media were determined by a PICP ELISA assay (Quidel #8003) following the manufacturer's protocol. Potencies of test compounds were calculated by fitting PICP levels, relative to untreated controls, to log (inhibitor) vs. response equation using Graphpad Prism software 5.0 and expressed as pIC50.
For some compounds, deposition of mature collagen was measured by immunostaining in addition to PICP levels. At the end of the treatment period, cells on culture plate were fixed with 100% methanol (prechilled to −20° C.) for 10 min. Then the cells were immunostained with mouse anti-mature collagen I antibody (1:500 dilution, Sigma#C2456), anti-mouse secondary antibody Alexa647 (1:500 dilution, Invitrogen#A21236) and Hoechst (for nuclei, 2 μg/ml, Invitrogen#H3596). Fluorescent image acquisition was done using the Operetta High Content Imaging system (Perkin Elmer). For each image field, the intensity of mature collagen staining was normalized with the number of nuclei. Normalized collagen levels were used to calculate the potency of test compounds with Graphpad Prism software, as described above.

[3] abbreviates: human cardiac fibroblasts, crowding media, 24 to 48 hr, PICP ELISA of media.
[4] abbreviates: human cardiac fibroblasts, crowding media, 24 to 48 hr, collagen I immunostaining normalized to nuclei.

Molecules are shown by their SMILES. Where only a bound is given, the exact number is not on record here.

`CCCCC[C@H](CN(O)C=O)C(=O)NCNC(=O)c1ccc(-c2ccccc2)o1` [Example 5, (R)-N-((2-((N-hydroxyformamido)methyl)heptanamido)methyl)-5-phenylfuran-2-carboxamide]: the IC50 in test [1] (Homo sapiens) was below 3.98 µM; in test [2] (Homo sapiens), below 1 µM.

On to `CCCCC[C@@H](C(=O)NCNC(=O)c1ccc(-c2ccccc2)o1)[C@@H](CC)N(O)C=O` [Example 24, N-(((R)-2-((R)-1-(N-hydroxyformamido)propyl)heptanamido)methyl)-5-phenylfuran-2-carboxamide], for which the IC50 in test [1] (setting [3]) is below 3.98 µM; in test [2] (setting [4]), below 1 µM.

Take `CCCCC[C@@H](C(=O)NCNC(=O)c1ccc(-c2cc(OCC)cc(C(=O)O)c2)o1)[C@@H](CC)N(O)C=O` [Example 39, 3-ethoxy-5-(5-((((R)-2-((R)-1-(N-hydroxyformamido)propyl)heptanamido)methyl)carbamoyl)furan-2-yl)benzoic acid]: the IC50 in test [1] (setting [3]) is below 3.98 µM; in test [2] (setting [4]) it was below 1 µM.

On to `CCCCC[C@@H](C(=O)NCNC(=O)c1ccc(-c2cc(OCC)cc(C(=O)N[C@@H](CC(=O)O)C(=O)OC(C)(C)C)c2)o1)[C@@H](CC)N(O)C=O` [Example 47, (S)-4-(tert-butoxy)-3-(3-ethoxy-5-(5-((((R)-2-((R)-1-(N-hydroxyformamido)propyl)heptanamido)methyl)carbamoyl)furan-2-yl)benzamido)-4-oxobutanoic acid], for which the IC50 in test [1] (setting [3]) is below 3.98 µM; in test [2] (setting [4]), below 1 µM.

In the case of `CCCCC[C@@H](C(=O)NCNC(=O)c1ccc(-c2ccc(C(=O)N[C@@H](CC(=O)O)C(=O)O)c(OCC)c2)o1)[C@@H](CC)N(O)C=O` [Example 74, (S)-2-(2-ethoxy-4-(5-((((R)-2-((R)-1-(N-hydroxyformamido)propyl)heptanamido)methyl)carbamoyl)furan-2-yl)benzamido)succinic acid], the figures for the IC50 in test [1] (setting [3]) and in test [2] (setting [4]) were below 3.98 µM and below 1 µM, respectively.

Regarding `CCCCC[C@@H](C(=O)NCNC(=O)c1ccc(-c2ccc(CC(=O)N[C@@H](CC(=O)O)C(=O)O)c(OCC)c2)o1)[C@@H](CC)N(O)C=O` [Example 75, (S)-2-(2-(2-ethoxy-4-(5-((((R)-2-((R)-1-(N-hydroxyformamido)propyl)heptanamido)methyl)carbamoyl)furan-2-yl)phenyl)acetamido) succinic acid], the IC50 in test [1] (setting [3]) was below 3.98 µM; in test [2] (setting [4]), below 1 µM.

Turning to `CCCCC[C@@H](C(=O)NCNC(=O)c1ccc(-c2cc(OCC)cc(C(=O)N[C@@H](CC(=O)O)C(=O)O)c2)o1)[C@@H](CC)N(O)C=O` [Example 77, (S)-2-(3-ethoxy-5-(5-((((R)-2-((R)-1-(N-hydroxyformamido)propyl)heptanamido)methyl)carbamoyl)furan-2-yl)benzamido) succinic acid], the figures for the IC50 in test [1] (setting [3]) and in test [2] (setting [4]) were below 3.98 µM and below 1 µM, respectively.

As to `CCCCC[C@@H](C(=O)NCNC(=O)c1ccc(-c2cccc(C3(C(=O)O)CC3)c2)o1)[C@@H](CC)N(O)C=O` [Example 80, 1-(3-(5-((((R)-2-((R)-1-(N-hydroxyformamido)propyl)heptanamido)methyl)carbamoyl)furan-2-yl)phenyl) cyclopropanecarboxylic acid], the results for the IC50 in test [1] (setting [3]) and in test [2] (setting [4]) were below 3.98 µM and below 1 µM, respectively.

Turning to `CCCCC[C@@H](C(=O)NCNC(=O)c1ccc(-c2cc(OCC)cc(C(=O)O)c2O)o1)[C@@H](CC)N(O)C=O` [Example 81, 5-ethoxy-2-hydroxy-3-(5-((((R)-2-((R)-1-(N-hydroxy-formamido)propyl)heptanamido)methyl)carbamoyl)furan-2-yl)benzoic acid], the IC50 was below 3.98 µM in test [1] (setting [3]) and below 1 µM in test [2] (setting [4]).

In the case of `CCCCC[C@@H](C(=O)NCNC(=O)c1ccc(-c2cc(OCCC)cc(C(=O)O)c2)o1)[C@@H](CC)N(O)C=O` [Example 82], the IC50 in test [1] (setting [3]) is below 3.98 µM; in test [2] (setting [4]), below 1 µM.

Consider `CCCCC[C@@H](C(=O)NCNC(=O)c1ccc(-c2ccc(C(=O)N(CC(=O)O)CC(=O)O)c(OCC)c2)o1)[C@@H](CC)N(O)C=O` [Example 86, 2,2′-((2-ethoxy-4-(5-((((R)-2-((R)-1-(N-hydroxy-formamido)propyl)heptanamido)methyl)carbamoyl)furan-2-yl)benzoyl)azanediyl) diacetic acid], for which the figures for the IC50 in test [1] (setting [3]) and in test [2] (setting [4]) were below 3.98 µM and below 1 µM, respectively.

Take `CCCCC[C@@H](C(=O)NCNC(=O)c1ccc(-c2cc(OCC)cc(C(=O)N[C@@H](CCC(=O)O)C(=O)O)c2)o1)[C@@H](CC)N(O)C=O` [Example 93, (S)-2-(3-ethoxy-5-(5-((((R)-2-((R)-1-(N-hydroxy-formamido)propyl)heptanamido)methyl)carbamoyl)furan-2-yl)benzamido) pentanedioic acid]: the IC50 is below 3.98 µM in test [1] (setting [3]) and below 1 µM in test [2] (setting [4]).

For `CCCCC[C@@H](C(=O)NCNC(=O)c1ccc(-c2cc(OCC)cc(P(=O)(O)O)c2)o1)[C@@H](CC)N(O)C=O` [Example 96, (3-ethoxy-5-(5-((((R)-2-((R)-1-(N-hydroxyformamido)propyl)heptanamido)methyl)carbamoyl)furan-2-yl)phenyl)phosphonic acid], the IC50 is below 3.98 µM in test [1] (setting [3]) and below 1 µM in test [2] (setting [4]).

As to `CCCCC[C@@H](C(=O)NCNC(=O)c1ccc(-c2ccc(P(=O)(O)O)c(OCC)c2)o1)[C@@H](CC)N(O)C=O` [Example 98, (2-ethoxy-4-(5-((((R)-2-((R)-1-(N-hydroxyformamido)propyl)heptanamido)methyl)carbamoyl)furan-2-yl)phenyl)phosphonic acid], the IC50 in test [1] (setting [3]) was below 3.98 µM; in test [2] (setting [4]), below 1 µM.

For `CCOc1cc(-c2ccc(C(=O)NCNC(=O)[C@H](CCc3ccc4ccccc4c3)[C@@H](CC)N(O)C=O)o2)cc(P(=O)(O)O)c1` [Example 141], the IC50 in test [1] (setting [3]) is below 3.98 µM.

For the compound `CCCCC[C@@H](C(=O)NCNC(=O)c1ccc(-c2ccc(C(=O)NCP(=O)(O)O)c(O)c2)o1)[C@@H](CC)N(O)C=O` [Example 142, ((2-hydroxy-4-(5-((((R)-2-((R)-1-(N-hydroxyformamido)propyl)heptanamido)methyl)carbamoyl)furan-2-yl)benzamido)methyl)phosphonic acid], the IC50 in test [1] (setting [3]) was below 3.98 µM.

On to `CCCCC[C@@H](C(=O)NCNC(=O)c1ccc(-c2ccc(C(=O)NCP(=O)(O)O)cc2)o1)[C@@H](CC)N(O)C=O` [Example 143, ((4-(5-((((R)-2-((R)-1-(N-hydroxyformamido)propyl)heptanamido)methyl)carbamoyl)furan-2-yl)benzamido)methyl)phosphonic acid], for which the IC50 in test [1] (setting [3]) was below 3.98 µM.

In the case of `CCCCC[C@@H](C(=O)NCNC(=O)c1ccc(-c2ccc(C(=O)NCP(=O)(O)O)c(C)c2)o1)[C@@H](CC)N(O)C=O` [Example 144, ((4-(5-((((R)-2-((R)-1-(N-hydroxyformamido)propyl)heptanamido)methyl)carbamoyl)furan-2-yl)-2-methylbenzamido)methyl)phosphonic acid], the IC50 in test [1] (setting [3]) was below 3.98 µM.

With `CCCCC[C@@H](C(=O)NCNC(=O)c1ccc(-c2cc(OCC(=O)O)cc(P(=O)(O)O)c2)o1)[C@@H](CC)N(O)C=O` [Example 145, 2-(3-(5-((((R)-2-((R)-1-(N-hydroxyformamido)propyl)heptanamido)methyl)carbamoyl)furan-2-yl)-5-phosphonophenoxy) acetic acid], in test [1] (setting [3]), the IC50 is below 3.98 µM.

In the case of `CCCCC[C@@H](C(=O)NCNC(=O)c1ccc(-c2ccc(C(=O)O)c(O)c2)o1)[C@@H](CC)N(O)C=O` [Example 146, 2-hydroxy-4-(5-((((R)-2-((R)-1-(N-hydroxyformamido)propyl)heptanamido)methyl)carbamoyl)furan-2-yl)benzoic acid], the IC50 in test [1] (setting [3]) is below 3.98 µM.

Source of the values: patent US10450288B2, “Hydroxy formamide derivatives and their use” (GLAXOSMITHKLINE INTELLECTUAL PROPERTY (NO.2) LIMITED, priority 2014, dated 2019).
